In article PMC2989343 (Bioorganic & medicinal chemistry, 2010):

How the values were obtained:
[1] = target: human butyrylcholinesterase (BChE, EC 3.1.1.8) (Homo sapiens, UniProt P06276); assay: Inhibition of freshly prepared human plasma BChE; type: biochemical; conditions: from 60 to 18,000 nM
cholinesterase = conditions: cited from earlier work
[2] = Observation for acute cholinergically-mediated adverse effects in rat; conditions: anesthetized rat, 10 mg/kg i.p.
[3] = target: human acetylcholinesterase (AChE, EC 3.1.1.7) (Homo sapiens, UniProt P22303); assay: Inhibition of freshly prepared human erythrocyte AChE
Chain of human acetylcholinesterase (AChE, EC 3.1.1.7) (P22303 32-617 isoform P22303-2 limits assumed): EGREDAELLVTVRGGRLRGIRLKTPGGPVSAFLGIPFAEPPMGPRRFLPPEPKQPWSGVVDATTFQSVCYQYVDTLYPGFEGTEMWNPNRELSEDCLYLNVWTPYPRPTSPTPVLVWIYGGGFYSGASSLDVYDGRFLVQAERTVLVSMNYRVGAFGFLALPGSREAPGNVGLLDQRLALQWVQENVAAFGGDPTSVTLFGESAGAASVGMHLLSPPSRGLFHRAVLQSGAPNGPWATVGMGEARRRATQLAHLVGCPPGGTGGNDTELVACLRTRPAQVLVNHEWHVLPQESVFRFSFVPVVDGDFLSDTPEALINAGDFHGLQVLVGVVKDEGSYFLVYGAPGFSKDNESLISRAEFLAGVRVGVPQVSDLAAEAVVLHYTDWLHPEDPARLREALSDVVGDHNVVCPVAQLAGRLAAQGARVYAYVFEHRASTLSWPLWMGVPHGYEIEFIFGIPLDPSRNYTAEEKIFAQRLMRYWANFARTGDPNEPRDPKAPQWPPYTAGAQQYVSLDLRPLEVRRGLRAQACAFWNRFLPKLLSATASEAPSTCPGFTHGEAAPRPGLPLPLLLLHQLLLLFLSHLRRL

Chain of human butyrylcholinesterase (BChE, EC 3.1.1.8) (P06276 29-602): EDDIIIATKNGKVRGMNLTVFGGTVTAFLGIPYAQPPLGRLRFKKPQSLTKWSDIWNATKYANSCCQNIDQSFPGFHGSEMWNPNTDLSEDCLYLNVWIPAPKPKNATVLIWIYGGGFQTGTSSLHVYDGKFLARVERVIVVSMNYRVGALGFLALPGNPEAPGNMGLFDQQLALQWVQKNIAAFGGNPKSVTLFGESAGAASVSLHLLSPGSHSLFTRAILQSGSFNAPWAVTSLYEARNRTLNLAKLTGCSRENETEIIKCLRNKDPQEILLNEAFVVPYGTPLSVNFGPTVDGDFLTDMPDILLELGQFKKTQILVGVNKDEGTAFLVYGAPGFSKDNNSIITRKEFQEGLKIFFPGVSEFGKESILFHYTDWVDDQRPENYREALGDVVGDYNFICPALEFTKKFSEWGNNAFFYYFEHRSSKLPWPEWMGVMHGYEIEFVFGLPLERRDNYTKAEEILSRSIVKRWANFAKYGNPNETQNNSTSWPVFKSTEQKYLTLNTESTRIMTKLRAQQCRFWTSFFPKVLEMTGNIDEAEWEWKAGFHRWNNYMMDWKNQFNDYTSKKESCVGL

COS(=O)(=O)[O-].C[N+](C)(C)c1cccc(OC(=O)Nc2ccccc2)c1 [Compound 6, N-Phenylcarbamate of 3-phenol-1-trimethylammonium methylsulfate]
fold decline of BChE IC50 value relative to neostigmine (3) [1]: 300 fold

CNC(=O)Oc1ccc2c(c1)[C@]1(C)CCN(C)[C@@H]1N2C [Compound 9, (−)-Physostigmine]
human pharmacodynamic half-life (T1/2) (cholinesterase): 30 min

CC(C)c1ccc(NC(=O)Oc2ccc3c(c2)[C@]2(C)CC[N+](C)(C)C2N3C)cc1.[Br-] (stereo partly drawn) [Compound 16, N(1)-Methylammonium bromide of (−)-cymserine]
central (tremor) or peripheral (lacrimation and salivation) cholinergically-mediated adverse effects [2]: No central (tremor) or peripheral (lacrimation and salivation) cholinergically-mediated adverse effects were evident

O=C(Nc1ccccc1)Oc1cccnc1 [Compound 7, N-Phenylcarbamate of 3-hydroxypyridine]
Selectivity A/B or B/A ([3]; given in words only, no ratio): None

C[n+]1cccc(OC(=O)Nc2ccccc2)c1.[Br-] [Compound 8, N-Phenylcarbamate of 3-hydroxy-1-methylpyridinium bromide]
AChE inhibitory activity (in words) ([3]; human AChE, versus pyridostigmine (4)): entire loss of AChE activity
